Reference: ChEMBL document CHEMBL1148684, “Benzimidazole-2-carboxamides as novel NR2B selective NMDA receptor antagonists” (Bioorg Med Chem Lett, 2006)

Legend:
Glutamate NMDA receptor = test: Inhibition of NMDA-evoked increase in intracellular calcium ion in rat cortical cells; type: functional, cell-based
[1] = target: Glutamate receptor ionotropic, NMDA 2B (Rattus norvegicus, UniProt Q00960); test: Displacement of [3H]Ro25-6981 from NR2B NMDA receptor in rat forebrain membrane; type: cell membranes
Sequence of Glutamate receptor ionotropic, NMDA 2B (Q00960 whole entry): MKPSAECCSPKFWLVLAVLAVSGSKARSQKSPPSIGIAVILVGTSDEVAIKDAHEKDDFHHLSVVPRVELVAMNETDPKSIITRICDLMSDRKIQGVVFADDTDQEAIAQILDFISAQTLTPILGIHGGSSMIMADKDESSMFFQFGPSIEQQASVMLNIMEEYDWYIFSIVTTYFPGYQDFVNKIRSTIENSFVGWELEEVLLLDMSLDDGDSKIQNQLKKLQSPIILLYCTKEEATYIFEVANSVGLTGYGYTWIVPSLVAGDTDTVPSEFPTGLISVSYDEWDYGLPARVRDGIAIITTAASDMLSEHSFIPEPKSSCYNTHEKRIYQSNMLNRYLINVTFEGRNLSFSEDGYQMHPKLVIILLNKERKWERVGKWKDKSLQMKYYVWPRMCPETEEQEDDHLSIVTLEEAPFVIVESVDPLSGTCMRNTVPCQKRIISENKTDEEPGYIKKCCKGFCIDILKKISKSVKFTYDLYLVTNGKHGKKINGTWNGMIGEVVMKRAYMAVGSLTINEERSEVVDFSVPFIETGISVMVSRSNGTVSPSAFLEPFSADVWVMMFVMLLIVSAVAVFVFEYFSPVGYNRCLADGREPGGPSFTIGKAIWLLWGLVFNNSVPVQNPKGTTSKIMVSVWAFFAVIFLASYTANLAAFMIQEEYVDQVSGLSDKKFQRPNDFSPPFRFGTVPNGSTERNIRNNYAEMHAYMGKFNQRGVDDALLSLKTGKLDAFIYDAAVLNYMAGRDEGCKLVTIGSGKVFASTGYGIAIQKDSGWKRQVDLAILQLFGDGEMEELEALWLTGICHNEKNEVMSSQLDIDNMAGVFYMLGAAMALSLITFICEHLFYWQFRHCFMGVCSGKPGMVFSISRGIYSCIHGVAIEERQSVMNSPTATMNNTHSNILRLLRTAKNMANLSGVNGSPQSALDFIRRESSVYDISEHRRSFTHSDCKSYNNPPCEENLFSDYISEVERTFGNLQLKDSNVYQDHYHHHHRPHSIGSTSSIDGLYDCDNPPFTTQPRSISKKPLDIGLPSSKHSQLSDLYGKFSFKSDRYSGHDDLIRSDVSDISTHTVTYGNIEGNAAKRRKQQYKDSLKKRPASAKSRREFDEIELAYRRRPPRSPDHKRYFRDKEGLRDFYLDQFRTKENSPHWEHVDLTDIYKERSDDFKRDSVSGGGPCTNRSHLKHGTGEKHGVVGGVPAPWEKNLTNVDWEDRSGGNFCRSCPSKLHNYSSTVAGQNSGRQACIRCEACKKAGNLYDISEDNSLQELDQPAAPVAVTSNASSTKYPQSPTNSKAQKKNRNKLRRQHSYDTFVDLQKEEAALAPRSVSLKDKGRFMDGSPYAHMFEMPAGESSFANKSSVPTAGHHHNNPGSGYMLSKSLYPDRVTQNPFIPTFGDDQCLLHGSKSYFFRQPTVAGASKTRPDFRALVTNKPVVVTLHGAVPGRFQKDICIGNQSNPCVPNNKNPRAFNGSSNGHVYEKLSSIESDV

Mus musculus = test: Analgesic activity against formalin-induced persistent pain in orally dosed NMRI mouse assessed as decrease in licking time relative to control; type: functional; settings: po
[2] = target: Glutamate NMDA receptor; GRIN1/GRIN2A (Homo sapiens) (UniProt Q05586+Q12879); test: Inhibition of NMDA-evoked current in EcR293 cells transfected with NR1/NR2A upto 10 uM by patch clamp method; type: functional, cell-based; settings: HEK293
[3] = Inhibition of NMDA-evoked current in EcR293 cells transfected with NR1/NR2D upto 10 uM by patch clamp method; type: functional, HEK293

Compound	IC50 (Glutamate NMDA receptor) [nM]	IC50 [1] [nM]	ED50 (Mus musculus) [mg/kg]	inhibition [2] [%]	Inhibition [3] [%]
Cc1cccc(CC2CCN(C(=O)c3nc4ccc(O)cc4[nH]3)CC2)c1	2.4	5	–	–	–
O=C(c1nc2c(O)cccc2[nH]1)N1CCC(Cc2ccccc2)CC1	3	10	–	–	–
Cc1ccccc1CC1CCN(C(=O)c2nc3cc(O)ccc3[nH]2)CC1	12	8.4	–	–	–
C[C@@H](CN1CCC(Cc2ccccc2)CC1)[C@@H](O)c1ccc(O)cc1	159	6	–	–	–
O=C(c1nc2ccc(O)cc2[nH]1)N1CCC(Oc2ccc(F)cc2)CC1	2.9	6	–	–	–
Cc1ccc(CC2CCN(C(=O)c3nc4ccc(O)cc4[nH]3)CC2)cc1	8.7	4.4	–	–	–
Cc1ccc(OC2CCN(C(=O)c3nc4ccc(O)cc4[nH]3)CC2)cc1	1.1	3	–	–	–
O=C(c1nc2ccc(O)cc2[nH]1)N1CCC(Cc2ccccc2)CC1	–	4	1.6	< 20	<20
COc1cccc(CC2CCN(C(=O)c3nc4ccc(O)cc4[nH]3)CC2)c1	2.5	3.2	–	–	–
CS(=O)(=O)Nc1ccc2[nH]c(C(=O)N3CCC(Cc4ccccc4)CC3)nc2c1	1.3	3	–	–	–
O=C(c1nc2ccc(O)cc2[nH]1)N1CCC(Cc2cccc(F)c2)CC1	6	5.2	–	–	–
O=C(c1nc2ccc(O)cc2[nH]1)N1CCC(Cc2ccc(F)cc2)CC1	1.2	4	–	–	–
CS(=O)(=O)Nc1ccc2nc(CN3CCC(Cc4ccccc4)CC3)[nH]c2c1	8.6	3.5	–	–	–
O=c1[nH]c2ccc([S+]([O-])CCN3CCC(Cc4ccc(F)cc4)CC3)cc2o1 (centres undefined) [BESONPRODIL]	6.6	4	–	–	–
Nc1ccc2[nH]c(C(=O)N3CCC(Cc4ccccc4)CC3)nc2c1	40	143	–	–	–
O=C(c1nc2ccc(O)cc2[nH]1)N1CCC(Oc2ccc(Cl)cc2)CC1	1.7	14	–	–	–
